Results as given in US9340590B2 (priority 2011, dated 2016).
pIC50: −log10 of the molar value. Where two headings read alike, the source gives them in different places. Positions of bridges follow the written chain, without caps; N, C: chain ends. Residues, ends and D or L forms follow the SMILES beside them.

Experiments:
Assay in all cases: cell-based
[1] = biological target: hNav1.7 (Homo sapiens, UniProt Q15858); type: cell-based
[2] = biological target: hNav1.5 (Homo sapiens, UniProt Q14524); details: IonWorks Quattro, read-out: IWQ Use Nav1.5
[3] = biological target: hNav1.3 (Homo sapiens, UniProt Q9NY46); details: IonWorks Quattro, read-out: IWQ Use Nav1.3
[4] = IonWorks Quattro, Use, read-out: IWQ Use Nav1.7

Sequence of hNav1.3 (Q9NY46 whole entry, looked up): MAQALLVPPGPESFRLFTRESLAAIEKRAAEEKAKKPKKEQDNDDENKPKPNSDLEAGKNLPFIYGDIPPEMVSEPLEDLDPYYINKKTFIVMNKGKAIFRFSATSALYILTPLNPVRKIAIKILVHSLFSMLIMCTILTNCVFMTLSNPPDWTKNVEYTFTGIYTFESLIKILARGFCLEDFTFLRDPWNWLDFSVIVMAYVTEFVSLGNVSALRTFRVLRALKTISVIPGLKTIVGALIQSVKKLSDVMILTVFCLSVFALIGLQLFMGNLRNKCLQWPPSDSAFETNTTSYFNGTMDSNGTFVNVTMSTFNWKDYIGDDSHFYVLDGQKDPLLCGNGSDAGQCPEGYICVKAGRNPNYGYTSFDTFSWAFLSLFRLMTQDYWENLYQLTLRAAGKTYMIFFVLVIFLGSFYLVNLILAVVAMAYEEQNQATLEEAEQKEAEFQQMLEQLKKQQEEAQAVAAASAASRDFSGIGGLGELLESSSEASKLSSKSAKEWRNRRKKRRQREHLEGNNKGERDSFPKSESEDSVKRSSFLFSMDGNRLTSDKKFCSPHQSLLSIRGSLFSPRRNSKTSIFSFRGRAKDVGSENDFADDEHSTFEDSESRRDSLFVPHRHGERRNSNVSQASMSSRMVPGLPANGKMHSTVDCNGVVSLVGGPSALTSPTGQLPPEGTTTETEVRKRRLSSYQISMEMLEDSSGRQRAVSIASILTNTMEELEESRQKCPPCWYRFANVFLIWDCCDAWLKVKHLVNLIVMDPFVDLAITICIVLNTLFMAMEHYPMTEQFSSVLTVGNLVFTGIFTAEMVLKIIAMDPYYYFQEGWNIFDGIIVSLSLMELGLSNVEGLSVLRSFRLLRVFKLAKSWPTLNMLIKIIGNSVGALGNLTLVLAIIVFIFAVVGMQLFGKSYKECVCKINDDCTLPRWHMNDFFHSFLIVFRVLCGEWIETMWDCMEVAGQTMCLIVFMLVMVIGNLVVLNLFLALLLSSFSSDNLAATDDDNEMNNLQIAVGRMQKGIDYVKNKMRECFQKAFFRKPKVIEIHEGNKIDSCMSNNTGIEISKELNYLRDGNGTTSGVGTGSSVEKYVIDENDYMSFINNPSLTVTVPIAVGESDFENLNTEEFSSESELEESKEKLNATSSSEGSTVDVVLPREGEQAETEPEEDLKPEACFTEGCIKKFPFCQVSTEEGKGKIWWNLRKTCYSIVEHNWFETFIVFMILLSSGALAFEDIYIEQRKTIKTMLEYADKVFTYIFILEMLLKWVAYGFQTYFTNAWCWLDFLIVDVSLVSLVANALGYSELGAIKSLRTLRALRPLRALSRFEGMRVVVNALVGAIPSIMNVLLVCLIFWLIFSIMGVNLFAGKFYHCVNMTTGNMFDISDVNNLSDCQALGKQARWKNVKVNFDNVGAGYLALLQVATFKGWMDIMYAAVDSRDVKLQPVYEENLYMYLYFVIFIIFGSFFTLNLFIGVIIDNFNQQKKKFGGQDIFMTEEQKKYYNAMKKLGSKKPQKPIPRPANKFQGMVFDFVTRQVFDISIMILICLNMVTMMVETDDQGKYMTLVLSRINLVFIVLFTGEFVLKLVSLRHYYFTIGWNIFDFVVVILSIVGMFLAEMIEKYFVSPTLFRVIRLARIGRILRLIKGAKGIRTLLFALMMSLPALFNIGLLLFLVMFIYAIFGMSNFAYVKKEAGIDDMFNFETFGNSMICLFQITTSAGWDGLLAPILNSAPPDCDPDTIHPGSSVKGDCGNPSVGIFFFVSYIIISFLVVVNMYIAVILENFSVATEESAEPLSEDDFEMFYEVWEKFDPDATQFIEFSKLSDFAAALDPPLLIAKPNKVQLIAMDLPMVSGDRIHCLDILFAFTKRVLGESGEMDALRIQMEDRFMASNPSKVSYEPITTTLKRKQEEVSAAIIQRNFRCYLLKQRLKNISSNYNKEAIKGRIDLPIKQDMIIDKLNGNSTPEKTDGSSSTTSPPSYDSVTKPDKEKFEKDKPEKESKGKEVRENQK
Sequence of hNav1.5 (Q14524 whole entry, looked up): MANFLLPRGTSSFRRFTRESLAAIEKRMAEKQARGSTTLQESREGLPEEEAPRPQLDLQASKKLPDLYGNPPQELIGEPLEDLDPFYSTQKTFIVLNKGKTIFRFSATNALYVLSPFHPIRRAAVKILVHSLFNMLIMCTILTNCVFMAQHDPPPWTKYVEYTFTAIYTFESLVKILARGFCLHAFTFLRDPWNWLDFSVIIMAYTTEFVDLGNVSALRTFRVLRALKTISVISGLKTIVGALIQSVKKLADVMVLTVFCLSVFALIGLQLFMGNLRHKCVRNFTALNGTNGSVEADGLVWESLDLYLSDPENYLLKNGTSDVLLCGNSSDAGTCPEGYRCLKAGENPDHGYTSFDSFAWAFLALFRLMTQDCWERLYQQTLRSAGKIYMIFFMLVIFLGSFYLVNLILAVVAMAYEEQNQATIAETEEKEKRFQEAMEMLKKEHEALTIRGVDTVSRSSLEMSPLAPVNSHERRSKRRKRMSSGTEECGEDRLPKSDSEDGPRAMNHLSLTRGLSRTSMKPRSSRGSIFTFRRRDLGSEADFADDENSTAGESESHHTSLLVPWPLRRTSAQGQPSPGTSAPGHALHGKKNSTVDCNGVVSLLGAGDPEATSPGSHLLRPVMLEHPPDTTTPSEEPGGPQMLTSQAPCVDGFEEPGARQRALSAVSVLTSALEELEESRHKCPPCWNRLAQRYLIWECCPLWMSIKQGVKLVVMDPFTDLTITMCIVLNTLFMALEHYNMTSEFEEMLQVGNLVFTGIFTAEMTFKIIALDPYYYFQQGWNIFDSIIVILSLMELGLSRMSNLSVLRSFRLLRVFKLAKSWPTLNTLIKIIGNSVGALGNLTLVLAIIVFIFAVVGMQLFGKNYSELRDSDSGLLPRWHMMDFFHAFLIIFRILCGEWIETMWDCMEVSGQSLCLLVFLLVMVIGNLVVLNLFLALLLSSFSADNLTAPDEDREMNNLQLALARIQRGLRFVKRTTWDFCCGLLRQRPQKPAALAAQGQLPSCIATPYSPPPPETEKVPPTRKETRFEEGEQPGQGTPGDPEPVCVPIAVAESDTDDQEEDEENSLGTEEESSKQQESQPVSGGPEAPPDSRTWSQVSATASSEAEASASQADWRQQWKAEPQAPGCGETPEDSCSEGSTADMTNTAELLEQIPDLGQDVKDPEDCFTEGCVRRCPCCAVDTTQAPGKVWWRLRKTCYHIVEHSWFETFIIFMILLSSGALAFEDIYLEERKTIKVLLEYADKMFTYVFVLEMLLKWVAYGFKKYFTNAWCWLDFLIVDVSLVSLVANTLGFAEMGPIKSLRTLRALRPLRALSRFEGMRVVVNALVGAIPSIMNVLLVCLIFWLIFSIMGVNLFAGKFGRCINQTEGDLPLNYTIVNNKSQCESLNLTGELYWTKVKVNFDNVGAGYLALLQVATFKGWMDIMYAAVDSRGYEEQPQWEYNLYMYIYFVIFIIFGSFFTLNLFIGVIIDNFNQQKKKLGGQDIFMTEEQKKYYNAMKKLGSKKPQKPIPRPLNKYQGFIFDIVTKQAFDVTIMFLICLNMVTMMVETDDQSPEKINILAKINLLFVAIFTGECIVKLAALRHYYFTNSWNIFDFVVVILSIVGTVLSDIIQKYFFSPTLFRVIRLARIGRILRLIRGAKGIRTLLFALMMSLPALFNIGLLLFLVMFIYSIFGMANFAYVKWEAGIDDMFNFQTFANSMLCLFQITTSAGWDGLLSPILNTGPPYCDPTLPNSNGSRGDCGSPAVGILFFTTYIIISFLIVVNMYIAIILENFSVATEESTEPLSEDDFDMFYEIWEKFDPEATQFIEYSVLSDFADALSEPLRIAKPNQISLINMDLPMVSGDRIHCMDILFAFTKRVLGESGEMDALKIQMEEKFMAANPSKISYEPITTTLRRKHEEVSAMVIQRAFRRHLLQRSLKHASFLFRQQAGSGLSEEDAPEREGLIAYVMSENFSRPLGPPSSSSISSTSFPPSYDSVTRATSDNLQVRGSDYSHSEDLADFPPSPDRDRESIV

SMILES | pIC50 [1, 4] | pIC50 ([2]; Use) | pIC50 ([3]; Use) | pIC50 ([1]; Table 24, IonWorks Quattro, use, […], read-out: IWQ Use Nav1.7) | pIC50 ([2]; Table 24, use, […]) | pIC50 ([3]; Table 24, use, […]) | pIC50 [1]
CC[C@H](C)[C@@H]1NC(=O)[C@@H]2CSSC[C@@H]3NC(=O)[C@H](C(C)C)NC(=O)[C@H](CC(C)C)NC(=O)[C@H](CC(N)=O)NC(=O)[C@@H]4CCCN4C(=O)[C@H](CCCNC(=N)N)NC(=O)[C@H](CSSC[C@H](NC(=O)[C@@H](N)CC(=O)O)C(=O)N[C@@H](CC(C)C)C(=O)NCC(=O)N[C@@H](Cc4ccccc4)C(=O)N[C@@H](CCSC)C(=O)N[C@@H](CCCNC(=N)N)C(=O)N[C@@H](CCCCN)C(=O)N2)NC(=O)[C@H](CSSC[C@@H](C(=O)N[C@@H](CCCCN)C(=O)N[C@@H](Cc2ccc(O)cc2)C(=O)N[C@H](C(=O)N[C@@H](Cc2ccccc2)C(N)=O)C(C)C)NC(=O)[C@H](Cc2c[nH]c4ccccc24)NC(=O)[C@H](CCCCN)NC(=O)[C@H](Cc2cnc[nH]2)NC(=O)[C@H]([C@@H](C)O)NC(=O)[C@H](CCCNC(=N)N)NC(=O)[C@H](CO)NC3=O)NC(=O)[C@H](CCCCN)NC(=O)[C@H](CC(=O)O)NC(=O)[C@H](CC(N)=O)NC(=O)[C@H](CC(=O)O)NC(=O)[C@H](C)NC1=O [compound 46] (H-DCLGFMRKCIADNDKCCRPNLVCSRTHKWCKYVF-NH2; disulfide 2-17, 9-23, 16-30) | 6.68 | 4.79 | 6.74 | – | – | – | –
CC[C@H](C)[C@@H]1NC(=O)[C@@H]2CSSC[C@@H]3NC(=O)[C@H](C(C)C)NC(=O)[C@H](CC(C)C)NC(=O)[C@H](CC(N)=O)NC(=O)[C@@H]4CCCN4C(=O)[C@H](CCCNC(=N)N)NC(=O)[C@H](CSSC[C@H](NC(=O)[C@@H](N)CC(=O)O)C(=O)N[C@@H](CC(C)C)C(=O)NCC(=O)N[C@@H](Cc4ccccc4)C(=O)N[C@@H](CCSC)C(=O)N[C@@H](CCCNC(=N)N)C(=O)N[C@@H](CCCCN)C(=O)N2)NC(=O)[C@H](CSSC[C@@H](C(=O)N[C@@H](CCCCN)C(=O)N[C@@H](Cc2ccc(O)cc2)C(=O)N[C@H](C(=O)N[C@@H](Cc2ccccc2)C(N)=O)C(C)C)NC(=O)[C@H](C)NC(=O)[C@H](CCCCN)NC(=O)[C@H](Cc2cnc[nH]2)NC(=O)[C@H]([C@@H](C)O)NC(=O)[C@H](CCCNC(=N)N)NC(=O)[C@H](CO)NC3=O)NC(=O)[C@H](CCCCN)NC(=O)[C@H](CC(=O)O)NC(=O)[C@H](CC(N)=O)NC(=O)[C@H](CC(=O)O)NC(=O)[C@@H]2CCCN2C1=O [compound 47] (H-DCLGFMRKCIPDNDKCCRPNLVCSRTHKACKYVF-NH2; disulfide 2-17, 9-23, 16-30) | – | – | – | 4.93 | 4.79 | 4.56 | –
CC[C@H](C)[C@@H]1NC(=O)[C@@H]2CSSC[C@@H]3NC(=O)[C@H](C(C)C)NC(=O)[C@H](CC(C)C)NC(=O)[C@H](CC(N)=O)NC(=O)[C@@H]4CCCN4C(=O)[C@H](CCCCN)NC(=O)[C@H](CSSC[C@H](NC(=O)[C@@H](N)CC(=O)O)C(=O)N[C@@H](CC(C)C)C(=O)NCC(=O)N[C@@H](Cc4ccccc4)C(=O)N[C@@H](CCSC)C(=O)N[C@@H](CCCNC(=N)N)C(=O)N[C@@H](CCCCN)C(=O)N2)NC(=O)[C@H](CSSC[C@@H](C(=O)N[C@@H](CCCCN)C(=O)N[C@@H](Cc2ccc(O)cc2)C(=O)N[C@H](C(=O)N[C@@H](Cc2ccccc2)C(N)=O)C(C)C)NC(=O)[C@H](Cc2c[nH]c4ccccc24)NC(=O)[C@H](CCCCN)NC(=O)[C@H](Cc2cnc[nH]2)NC(=O)[C@H]([C@@H](C)O)NC(=O)[C@H](CCCNC(=N)N)NC(=O)[C@H](CO)NC3=O)NC(=O)[C@H](CCCCN)NC(=O)[C@H](CC(=O)O)NC(=O)[C@H](CC(N)=O)NC(=O)[C@H](CC(=O)O)NC(=O)[C@@H]2CCCN2C1=O [compound 49] (H-DCLGFMRKCIPDNDKCCKPNLVCSRTHKWCKYVF-NH2; disulfide 2-17, 9-23, 16-30) | – | 4.76 | 6.68 | – | – | – | 6.52
CC[C@H](C)[C@@H]1NC(=O)[C@@H]2CSSC[C@@H]3NC(=O)[C@H](C(C)C)NC(=O)[C@H](CC(C)C)NC(=O)[C@H](CCCCN)NC(=O)[C@@H]4CCCN4C(=O)[C@H](CCCNC(=N)N)NC(=O)[C@H](CSSC[C@H](NC(=O)[C@@H](N)CC(=O)O)C(=O)N[C@@H](CC(C)C)C(=O)NCC(=O)N[C@@H](Cc4ccccc4)C(=O)N[C@@H](CCSC)C(=O)N[C@@H](CCCNC(=N)N)C(=O)N[C@@H](CCCCN)C(=O)N2)NC(=O)[C@H](CSSC[C@@H](C(=O)N[C@@H](CCCCN)C(=O)N[C@@H](Cc2ccc(O)cc2)C(=O)N[C@H](C(=O)N[C@@H](Cc2ccccc2)C(N)=O)C(C)C)NC(=O)[C@H](Cc2c[nH]c4ccccc24)NC(=O)[C@H](CCCCN)NC(=O)[C@H](Cc2cnc[nH]2)NC(=O)[C@H]([C@@H](C)O)NC(=O)[C@H](CCCNC(=N)N)NC(=O)[C@H](CO)NC3=O)NC(=O)[C@H](CCCCN)NC(=O)[C@H](CC(=O)O)NC(=O)[C@H](CC(N)=O)NC(=O)[C@H](CC(=O)O)NC(=O)[C@@H]2CCCN2C1=O [compound 51] (H-DCLGFMRKCIPDNDKCCRPKLVCSRTHKWCKYVF-NH2; disulfide 2-17, 9-23, 16-30) | 6.21 | 4.72 | 6.48 | – | – | – | –
CC[C@H](C)[C@@H]1NC(=O)[C@@H]2CSSC[C@@H]3NC(=O)[C@H](CCCCN)NC(=O)[C@H](CC(C)C)NC(=O)[C@H](CC(N)=O)NC(=O)[C@@H]4CCCN4C(=O)[C@H](CCCNC(=N)N)NC(=O)[C@H](CSSC[C@H](NC(=O)[C@@H](N)CC(=O)O)C(=O)N[C@@H](CC(C)C)C(=O)NCC(=O)N[C@@H](Cc4ccccc4)C(=O)N[C@@H](CCSC)C(=O)N[C@@H](CCCNC(=N)N)C(=O)N[C@@H](CCCCN)C(=O)N2)NC(=O)[C@H](CSSC[C@@H](C(=O)N[C@@H](CCCCN)C(=O)N[C@@H](Cc2ccc(O)cc2)C(=O)N[C@H](C(=O)N[C@@H](Cc2ccccc2)C(N)=O)C(C)C)NC(=O)[C@H](Cc2c[nH]c4ccccc24)NC(=O)[C@H](CCCCN)NC(=O)[C@H](Cc2cnc[nH]2)NC(=O)[C@H]([C@@H](C)O)NC(=O)[C@H](CCCNC(=N)N)NC(=O)[C@H](CO)NC3=O)NC(=O)[C@H](CCCCN)NC(=O)[C@H](CC(=O)O)NC(=O)[C@H](CC(N)=O)NC(=O)[C@H](CC(=O)O)NC(=O)[C@@H]2CCCN2C1=O [compound 52] (H-DCLGFMRKCIPDNDKCCRPNLKCSRTHKWCKYVF-NH2; disulfide 2-17, 9-23, 16-30) | – | 4.82 | 7.10 | – | – | – | 6.72
